Assay results from patent US9788539B2, “Platelet protection solution having beta-galactosidase and sialidase inhibitors” (Velico Medical, Inc., priority 2011, dated 2017).
“Also recorded” adds a separate entry of the source.

Columns and labels:
[1] = system: platelet GPIbα and GPV receptor surface expression; experiment: Recombinant TACE-mediated GPIbα and GPV shedding from platelets; format: cell-based, mouse
mouse platelets [2] = experiment: Sialidase-induced β-galactose exposure on platelets, lectin binding by flow cytometry; format: cell-based
mouse platelets [3] = experiment: Survival of mouse platelets stored 20 hrs at RT in pPAS with or without DGJ after transfusion; format: in vivo; settings: 2 mM DGJ in pPAS, 30% plasma 70% pPAS, 20-hr storage at RT, vs pPAS alone
Description: Materials and Methods: Blood was obtained from anesthetized 8 weeks old C57/Bl6 mice by retroorbital bleeding. Platelets and platelet poor plasma (PPP) were prepared by differential centrifugation as described. Isolated platelets were labeled with 2.5 μM of CMFDA for 15 min. Following staining, platelets were pelleted and resuspended in 500 μl of plasma, or in a mixture of 30% plasma and 70% pPAS (i.e., PPS9 formulation in Tables 1 and 3 without the 2 mM of DGJ shown in the tables) or pPAS+DGJ (2 mM) (PPS9 formulation in Tables 1 and 3). Platelets were stored for 20 hrs at room temperature and transfused into 8 weeks old syngeneic mice. Non-stored fresh platelets in plasma were used as control. Platelet survivals were determined by intravenous injections CMFDA-labeled mouse platelets, respectively. Blood was collected by retroorbital bleeding at 5 min, 2, 24, 48 and 72 hrs. The percentages of CMFDA-positive platelets were determined by flow cytometry.

mouse platelets [4] = experiment: Surface receptor loss of mouse platelets stored at room temperature; format: cell-based; settings: mouse platelets stored at room temperature for 6 h, with fetuin (30-60% loss without)
mouse platelets [5] = experiment: β-galactose exposure by FITC RCA-1 lectin binding with fetuin as competitive sialidase substrate; format: cell-based; settings: fetuin 1 mg/mL
mouse platelets [6] = experiment: Sialidase (neuraminidase)-induced loss of platelet surface receptors, flow cytometry and immunoblot; format: cell-based
THP-1 cells = experiment: Ingestion of β-galactosidase treated platelets by THP-1 cells; format: cell-based; settings: fresh human platelets treated with β-galactosidase
Description: FIG. 44 is a bar graph showing that […] cells ingestion of human platelets correlates with decrease in β-galactose exposure. Isolated human platelets were labeled with CM-Orange, added to THP-1 cells and incubated for 30 min at 37° C. Ingestion of fluorescently labeled control fresh room temperature platelets and platelets treated by β-galactosidase was detected using flow cytometry, as an increase in […] associated orange fluorescence.
We treated fresh isolated platelets from healthy volunteers with β-galactosidase, which cleaves terminal β-galactose from platelet surfaces.

rTACE: recombinant TACE (ADAM17) metalloprotease
GPIbα released from platelets ([1]; platelets treated with rTACE): 47%±6
GPV released from platelets ([1]; platelets treated with rTACE): 18%±12
GPIX and αIIbβ3 released from platelets ([1]; platelets treated with rTACE, not shown): negligible amounts

CNC(=O)[C@H](Cc1c[nH]c2ccccc12)NC(=O)[C@@H](CC(=O)NO)CC(C)C [GM6001]
receptor shedding by rTACE in presence of inhibitor [1]: inhibited receptor shedding
β-galactose exposure induced by sialidase in presence of inhibitor (mouse platelets [2]): did not prevent β-galactose exposure

OC[C@H]1NC[C@H](O)[C@@H](O)[C@H]1O [DGJ, 1-deoxygalactonojirimycin]
survival of the transfused platelets (mouse platelets [3]): significantly improved the survival of the transfused platelets

fetuin: neuraminidase (NA) substrate, competitive sialidase substrate
loss of GPIb and GPV (mouse platelets [4]): 10-20%
RCA-1 binding to fresh platelets (mouse platelets [5]; fresh platelets at room temperature): no effect
sialic acid hydrolysis (β-galactose exposure, RCA-1 binding) during platelet storage (mouse platelets [5]; mouse platelet rich plasma, refrigeration 48 h): inhibits the hydrolysis of sialic acid from platelet glycans; also recorded: greatly inhibits sialic acid hydrolysis
loss (shedding) of platelet GPIbα and GPV induced by sialidase/neuraminidase, in presence of inhibitor (mouse platelets [6]): completely prevented this loss

β-galactosidase
ingestion of platelets by THP-1 cells compared to control platelets (THP-1 cells): 4 fold
